How the values were obtained:
Experiment in all cases: SILAC RP-ABPP
Assay type in all cases: cell-based
Conditions in all cases: SILAC H/L
[1] = target: T1, CTSA Lysosomal protective protein (P10619) (Homo sapiens, UniProt P10619)
T1 construct: In Situ Labelling of Cells with Hydrazine Probes for MS Experiments; endogenous in cells; host or cells: HEK293T and/or MDA-MB-231
T1 sequence (P10619 29-480): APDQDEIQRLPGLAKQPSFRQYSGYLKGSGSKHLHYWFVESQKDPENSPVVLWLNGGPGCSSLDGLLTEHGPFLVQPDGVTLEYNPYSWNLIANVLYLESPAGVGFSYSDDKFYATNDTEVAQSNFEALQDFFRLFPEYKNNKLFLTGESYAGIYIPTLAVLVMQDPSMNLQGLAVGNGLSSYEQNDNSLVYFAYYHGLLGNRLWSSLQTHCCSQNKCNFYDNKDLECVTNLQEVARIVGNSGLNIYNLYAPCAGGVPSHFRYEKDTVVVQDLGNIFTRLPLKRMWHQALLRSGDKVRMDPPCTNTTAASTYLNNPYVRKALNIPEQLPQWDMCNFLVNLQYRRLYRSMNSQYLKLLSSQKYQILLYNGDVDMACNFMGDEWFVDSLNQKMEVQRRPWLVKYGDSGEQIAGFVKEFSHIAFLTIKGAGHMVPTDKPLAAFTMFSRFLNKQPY
Protocol: (§1) For MS-based experiments, labelling was performed in a similar manner as described above in Example 2, maintaining the same concentrations of probes. Modifications to this protocol included using isotopically ‘light’ and ‘heavy’ SILAC cells that were also grown to near complete confluence prior to treatment. Isotopically light cells were treated with the non-clickable hydrazine probe (at the same concentration as the probe in ‘enrichment’ experiments) or the probe in the presence of 10-fold excess non-clickable hydrazine probe as a competitor (in ‘competition’ experiments). Isotopically heavy cells were treated with the probe for both types of experiments. These treatments were performed in non-SILAC media. Following treatments, cells were washed with cold PBS to remove the probe-containing media, harvested by scraping, collected by centrifugation (1,400 g, 3 min, 4° C.), washed again by resuspension in cold PBS and frozen as pellets at −80° C. until use.
(§2) The fractionated equimolar mixture of heavy and light soluble proteomes (1-1.5 mg) was diluted to 1 mL in PBS. Click reactions were scaled accordingly (except for biotin-azide) to maintain final concentrations of 0.1 mM TBTA, 1 mM CuSO4, 100 μM biotin-azide (10 mM in DMSO) and 1 mM TCEP. The mixture was vortexed and placed on a rotator at ambient temperature for 1 hour. Sequential addition of and mixture with pre-chilled methanol (MeOH, 2 mL), chloroform (CHCl3, 0.5 mL) and PBS (1 mL) on ice quenched the reaction. The precipitated proteome was centrifuged (5,000 g, 10 min, 4° C.) to fractionate the protein interphase from the organic and aqueous solvent layers. The protein pellet was washed with cold 1:1 MeOH:CHCl3 (3×1 mL), mildly sonicated in cold 4:1 MeOH:CHCl3 (2.5 mL) and pelleted once more by centrifugation (5,000 g, 10 min, 4° C.) to ensure click reagents were efficiently removed.
(§3) Heavy and light parent ion chromatograms associated with successfully identified peptides were extracted and compared using CIMAGE software as previously described^69. At least one ion of a co-eluting heavy-light pair must be accurately identified from a fragmentation event that occurred within the retention time window (±10 min) of parent ion elution. To ensure that the correct pair of peaks is quantified, chromatograms are extracted within a 10 ppm error tolerance of the predicted m/z, the signal-to-noise ratio must be >2.5 and the ‘co-elution correlation score’ and ‘envelope correlation score’ must have R^2 values ≥0.8. In addition, peptides detected as ‘singletons,’ where only the heavy ion of a peptide pair was identified, but for which passed all other filtering parameters, are given a default assigned ratio of ‘20,’ which is defined as any measured ratio that is ≥20.
(§4) To further eliminate false positives and any stochastic variability in the data, protein ratios were then determined by the median peptide ratio derived from three or more unique quantified peptides. Protein ratios that complied with these criteria from a single experiment were then averaged with ratios acquired from ≥3 replicates to provide final values for each type of experiment in both cell lines with both probes. […] Most importantly, there are no robustly measured ratios for proteins identified as probe 1 targets that had measured ratios of ˜1 with probe 2. Probe targets in HEK293T and MDA-MB-231 cells represent data combined from ≥3 independent biological replicates with each cell type performed with several independent batches of synthesized probes over a period of almost two years.
(§5) Analogous experiments were also performed with the aryl hydrazine probe 2 (1 mM, 0.5 hour), which furnished a larger list of high-reactivity proteins (33 in total; Table 3) that contained several of the targets of probe 1 (compared in Table 4), as well as additional proteins that may reflect an expanded chemical reactivity for probe 2.

[2] = target: T2, FTO Alphaketoglutaratedependent dioxygenase (Q9C0B1) (Homo sapiens, UniProt Q9C0B1)
T2 construct: In Situ Labelling of Cells with Hydrazine Probes for MS Experiments; endogenous in cells; host or cells: HEK293T and/or MDA-MB-231
Protocol: as §1, §2, §3, §4, §5

[3] = target: T3, CTSC Dipeptidyl peptidase 1 (P53634) (Homo sapiens, UniProt P53634)
T3 construct: In Situ Labelling of Cells with Hydrazine Probes for MS Experiments; endogenous in cells; host or cells: HEK293T and/or MDA-MB-231
Protocol: as §1, §2, §3, §4, §5

[4] = target: T4, PPT1 Palmitoylprotein thioesterase 1 (P50897) (Homo sapiens, UniProt P50897)
T4 construct: In Situ Labelling of Cells with Hydrazine Probes for MS Experiments; endogenous in cells; host or cells: HEK293T and/or MDA-MB-231
T4 sequence (P50897 28-306): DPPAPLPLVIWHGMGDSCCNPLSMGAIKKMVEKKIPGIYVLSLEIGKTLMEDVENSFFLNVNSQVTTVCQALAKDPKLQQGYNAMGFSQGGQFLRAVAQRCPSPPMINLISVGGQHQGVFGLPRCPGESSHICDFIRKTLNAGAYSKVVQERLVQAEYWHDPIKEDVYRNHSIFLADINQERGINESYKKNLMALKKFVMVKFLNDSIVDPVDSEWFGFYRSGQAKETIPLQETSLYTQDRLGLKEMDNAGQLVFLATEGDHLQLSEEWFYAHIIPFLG
Protocol: as §1, §2, §3, §4, §5

[5] = target: T5, FTH1 Ferritin heavy chain (P02794) (Homo sapiens, UniProt P02794)
T5 construct: In Situ Labelling of Cells with Hydrazine Probes for MS Experiments; endogenous in cells; host or cells: HEK293T and/or MDA-MB-231
Protocol: as §1, §2, §3, §4, §5

[6] = probe 1 3 mM 0.5 h vs probe 3, cell line not given
[7] = probe 1 vs probe 1+10x probe 3, cell line not given
[8] = probe 2 1 mM 0.5 h vs probe 4, MDA-MB-231
[9] = probe 2 vs probe 2+10x probe 4, MDA-MB-231

C#CCNN.Cl [probe 1, prop-2-yn-1-ylhydrazine hydrochloride] showed an enrichment ratioavg [1, 6] of 4, a competition ratioavg [1, 7] of 4 and a competition ratioavg [2, 7] of 1. The competition ratioavg [3, 7] was 3, the competition ratioavg [4, 7] was 5 and the enrichment ratioavg [5, 6] was 1. The competition ratioavg [5, 7] was 1.
C#CCCNC(=O)c1ccc(NN)cc1.Cl [probe 2, N-(but-3-yn-1-yl)-4-hydrazinylbenzamide hydrochloride] was tested, and the enrichment ratioavg [1, 8] was 9, the competition ratioavg [1, 9] was 4 and the enrichment ratioavg ([2]; probe 2 1 mM 0.5 h vs probe 4, HEK293T) was 13. The competition ratioavg ([2]; probe 2 vs probe 2+10x probe 4, HEK293T) was 5, the enrichment ratioavg [3, 8] was 20 and the competition ratioavg [3, 9] was 9. It also gave an enrichment ratioavg [4, 8] of 20, a competition ratioavg [4, 9] of 5 and an enrichment ratioavg [5, 8] of 20. It also gave a competition ratioavg [5, 9] of 5.

Source: US11226337B2, “Chemoproteomic profiling of protein electrophilic and oxidative post-translational modifications” (Zenagem, LLC, priority 2017, dated 2022)
